Assay [1] addresses T1, MAGL (Mus musculus, UniProt O35678).
T1 sequence (O35678 1-303): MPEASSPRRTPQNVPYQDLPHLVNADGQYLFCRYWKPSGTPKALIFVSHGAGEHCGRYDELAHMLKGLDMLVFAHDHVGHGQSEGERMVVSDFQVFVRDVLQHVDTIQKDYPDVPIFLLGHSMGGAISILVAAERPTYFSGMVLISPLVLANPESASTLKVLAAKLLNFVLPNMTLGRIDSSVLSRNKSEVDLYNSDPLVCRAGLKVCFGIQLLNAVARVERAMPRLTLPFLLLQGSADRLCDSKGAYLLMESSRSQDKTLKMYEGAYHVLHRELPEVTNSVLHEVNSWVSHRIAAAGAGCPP
Briefly: In vitro competitive activity-based protein profiling, MAGL, mouse. The settings on record: read-out: MAGL % inh. 1 μM (mouse).

For assay [2], the target named is T2, MAGL (Homo sapiens, UniProt Q99685).
T2 sequence (Q99685 1-303): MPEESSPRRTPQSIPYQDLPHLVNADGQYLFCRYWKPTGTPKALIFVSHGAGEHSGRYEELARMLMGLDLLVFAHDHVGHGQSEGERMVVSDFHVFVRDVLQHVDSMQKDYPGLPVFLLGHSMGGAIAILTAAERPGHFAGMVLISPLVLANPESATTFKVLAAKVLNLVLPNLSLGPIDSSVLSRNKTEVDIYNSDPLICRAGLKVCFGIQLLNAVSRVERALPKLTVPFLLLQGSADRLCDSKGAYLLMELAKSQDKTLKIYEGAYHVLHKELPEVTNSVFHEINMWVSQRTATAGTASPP
The assay can be described thus: In vitro competitive activity-based protein profiling, MAGL, human. The settings on record: read-out: MAGL % inh. 1 μM (human).

Each structure is given as a SMILES string.

With `O=C(O)c1nn(C(=O)N2CCN(Cc3cc(Cl)cc(-c4cncnc4)c3)CC2)cc1Cl` [Example 323, 4-chloro-1-(4-(3-chloro-5-(pyrimidin-5-yl)benzyl)piperazine-1-carbonyl)-1H-pyrazole-3-carboxylic acid], the inhibition at 1 µM at MAGL [1] and at MAGL [2] was > 75% in each case.

Regarding `O=C(O)c1ccn(C(=O)N2CCN(Cc3ccc(F)c(Oc4ccccc4)c3)CC2)n1` [Example 263, 1-(4-(4-fluoro-3-phenoxybenzyl)pi-perazine-1-carbonyl)-1H-pyrazole-3-carboxylic acid], the inhibition at 1 µM on MAGL [1] and at MAGL [2] was > 75% in each case.

For `Cc1c(CN2CCC3(CCN(C(=O)n4ccc(C(=O)O)n4)CC3)C2)cccc1-c1ccccc1` [Example 322, 1-(2-((2-methyl-[1,1′-biphenyl]-3-yl)methyl)-2,8-diazaspiro[4.5]decane-8-carbonyl)-1H-pyrazole-3-carboxylic acid], the inhibition at 1 µM on MAGL [1] and on MAGL [2] was > 75% throughout.

Turning to `Cc1ccc(COC2CCN(C(=O)n3ccc(C(=O)O)n3)CC2)cc1C(F)(F)F` [Example 236, 1-(4-((4-methyl-3-(trifluoromethyl)benzyl)oxy)piper-idine-1-carbonyl)-1H-pyrazole-3-carboxylic acid], the inhibition at 1 µM on MAGL [1] and at MAGL [2] was > 75% each time.

In the case of `O=C(O)c1nn(C(=O)N2CCN(Cc3cccc(Oc4ccc(F)cc4)c3)CC2)cc1Cl` [Example 320, 4-chloro-1-(4-(3-(4-fluorophenoxy)benzyl)piperazine-1-carbonyl)-1H-pyrazole-3-carboxylic acid], the inhibition at 1 µM on MAGL [1] and on MAGL [2] was > 75% in each case.

For `O=C(O)c1ccn(C(=O)N2C[C@H]3C[C@H](Oc4cccc(-c5ccnnc5)c4)C[C@H]3C2)n1` [Example 248, 1-(trans-5-(3-(pyridazin-4-yl)phenoxy)octa-hydrocyclopenta[c]pyrrole-2-carbonyl)-1H-pyrazole-3-carboxylic acid], the inhibition at 1 µM at MAGL [1] is 0 to 25%; on MAGL [2] it was 25 to 50%.

For the compound `Cc1ccc(C)c(CN2CCC3(CCN(C(=O)n4ccc(C(=O)O)n4)CC3)C2)c1` [Example 223, 1-(2-(2,5-dimethylbenzyl)-2,8-diazaspiro[4.5]decane-8-carbonyl)-1H-pyrazole-3-carboxylic acid], the inhibition at 1 µM at MAGL [1] is 0 to 25%; at MAGL [2], > 75%.

For `O=C(O)c1ccn(C(=O)N2CCN(Cc3cccc(Oc4cnccc4C(F)(F)F)c3)CC2)n1` [Example 352, 1-(4-(3-((4-(trifluoromethyl)pyridin-3-yl)oxy)benzyl)piper-azine-1-carbonyl)-1H-pyrazole-3-carboxylic acid], the inhibition at 1 µM on MAGL [1] and at MAGL [2] was > 75% throughout.

Take `O=C(O)c1ccn(C(=O)N2CCC3(CCN(Cc4cccc(Oc5ccccn5)c4)C3)CC2)n1` [Example 324, 1-(2-(3-(pyridin-2-yloxy)benzyl)-2,8-diazaspiro[4.5]decane-8-carbonyl)-1H-pyrazole-3-carboxylic acid]: the figures for the inhibition at 1 µM at MAGL [1] and on MAGL [2] were 0 to 25% and 25 to 50%, respectively.

Regarding `O=C(O)c1ccn(C(=O)N2C[C@H]3C[C@H](Oc4ccc(-c5ccccc5)cc4)C[C@H]3C2)n1` [Example 240, 1-(trans-5-([1,1′-biphenyl]-4-yloxy)octahydro-cyclopenta[c]pyrrole-2-carbonyl)-1H-pyrazole-3-carboxylic acid], the inhibition at 1 µM at MAGL [1] and on MAGL [2] was > 75% in each case.

In the case of `Cc1c(CO[C@@H]2C[C@@H]3CN(C(=O)n4ccc(C(=O)O)n4)C[C@@H]3C2)cccc1C(F)(F)F` [Example 289, 1-(cis-5-((2-methyl-3-(trifluoromethyl)benzyl)oxy)octa-hydrocyclopenta[c]pyrrole-2-carbonyl)-1H-pyrazole-3-carboxylic acid], the inhibition at 1 µM on MAGL [1] and on MAGL [2] was > 75% throughout.

For the compound `C[C@H]1C[C@@H](N(C)Cc2cccc(C(F)(F)F)c2)CCN1C(=O)n1ccc(C(N)=O)n1` [Example 24, 1-((2S,4S)-2-Methyl-4-(methyl(3-(trifluoromethyl)benzyl)amino)piperidine-1-carbonyl)-1H-pyrazole-3-carboxamide], the inhibition at 1 µM at MAGL [1] and on MAGL [2] was > 75% each time.

On to `O=C(O)c1ccn(C(=O)N2CCC3(CCN(Cc4ccc(Cl)c(N5CCOCC5)c4)C3)CC2)n1` [Example 372, 1-(2-(4-chloro-3-morpholinobenzyl)-2,8-diazaspiro[4.5]decane-8-carbonyl)-1H-pyrazole-3-carboxylic acid], for which the figures for the inhibition at 1 µM at MAGL [1] and on MAGL [2] were 25 to 50% and 0 to 25%, respectively.

Turning to `Cc1c(COC2CCN(C(=O)n3ccc(C(=O)O)n3)CC2)cccc1C(F)(F)F` [Example 235, 1-(4-((2-methyl-3-(trifluoromethyl)benzyl)oxy)piper-idine-1-carbonyl)-1H-pyrazole-3-carboxylic acid], the inhibition at 1 µM on MAGL [1] and on MAGL [2] was > 75% throughout.

Regarding `C[C@@H]1CN(Cc2ccc(C(F)(F)F)cc2N2CCCC2)CCN1C(=O)n1ccc(C(N)=O)n1` [Example 325, (R)-1-(2-methyl-4-(2-(pyrrolidin-1-yl)-4-(trifluoromethyl)benzyl)piperazine-1-carbonyl)-1H-pyrazole-3-carboxamide], the inhibition at 1 µM on MAGL [1] and at MAGL [2] was > 75% in each case.

Take `O=C(O)c1ccn(C(=O)N2C[C@H]3C[C@H](Oc4cccc(-c5nccs5)c4)C[C@H]3C2)n1` [Example 261, 1-(trans-5-(3-(thiazol-2-yl)phenoxy)octa-hydrocyclopenta[c]pyrrole-2-carbonyl)-1H-pyrazole-3-carboxylic acid]: the inhibition at 1 µM on MAGL [1] and on MAGL [2] was > 75% each time.

`O=C(O)c1nn(C(=O)N2CC3CN(Cc4cc(Cl)cc(C(F)(F)F)c4)CC3C2)cc1Cl` (stereo not shown) [Example 357, 4-chloro-1-(5-(3-chloro-5-(trifluoromethyl)benzyl)octahydro-pyrrolo[3,4-c]pyrrole-2-carbonyl)-1H-pyrazole-3-carboxylic acid]: the inhibition at 1 µM on MAGL [1] and at MAGL [2] was > 75% each time.

Turning to `C[C@H]1CN(Cc2cccc(Oc3cc(C(F)(F)F)ccn3)c2)CCN1C(=O)n1ccc(C(=O)O)n1` [Example 373, (S)-1-(2-methyl-4-(3-((4-(trifluoromethyl)pyridin-2-yl)oxy)benzyl)piper-azine-1-carbonyl)-1H-pyrazole-3-carboxylic acid], the inhibition at 1 µM on MAGL [1] and on MAGL [2] was > 75% each time.

For `Cc1c(CO[C@H]2C[C@@H]3CN(C(=O)n4cc(Cl)c(C(=O)O)n4)C[C@@H]3C2)cccc1C(F)(F)F` [Example 341, 4-chloro-1-(trans-5-((2-methyl-3-(trifluoromethyl)benzyl)oxy)octa-hydrocyclopenta[c]pyrrole-2-carbonyl)-1H-pyrazole-3-carboxylic acid], the inhibition at 1 µM at MAGL [1] and on MAGL [2] was > 75% each time.

For `NC(=O)c1ccn(C(=O)N2CCC3(CCN(Cc4cccc(C(F)(F)F)c4)C3)CC2)n1` [Example 284, 1-(2-(3-(trifluoromethyl)benzyl)-2,8-diazaspiro[4.5]decane-8-carbonyl)-1H-pyrazole-3-carboxamide], the inhibition at 1 µM at MAGL [1] and at MAGL [2] was > 75% throughout.
